In brackets after ≈: the same amount, converted by molar mass. Entries after “also recorded” stand apart in the source; their conditions may differ.
Tests used:
Format in all cases: physicochemical
[1] = Microcentrifuge dissolution in simulated gastric and intestinal media (GB/IB transfer test); settings: for dissolution in simulated gastric media: 0.01N HCl, pH 2.0, 1000 μg/mL; for dissolution in simulated intestinal media (IB): 0.5 wt % SIF powder in PBS, pH 6.5, 500 μg/mL
Description: Microcentrifuge dissolution of salts in simulated gastric and intestinal media
Dissolution of tosylate and docusate salts in simulated GB/IB transfer dissolution test was measured and compared to free base. The simulated gastric media was 0.01N HCl, pH 2.0 (concentration 1000 μg/mL), and the simulated intestinal media was 0.5 wt % SIF powder in PBS, pH 6.5 (500 μg/mL).
Once the pH is raised to intestinal pH, the drug converts back to a free base that precipitates.

[2] = Stability, droplet size (DLS) and appearance of the SEDD emulsion after 1:9 dilution in water
Description: The docusate:SEDD concentrate was diluted in water at a 1:9 ratio, resulting in an emulsion at a concentration of 2.3 mg/mL. […] The emulsion was stable at native pH 4 for more than 2 weeks at room temperature, with no significant change in particle size analysis by dynamic light scattering (DLS).
The tosylate:SEDD concentrate was diluted in water at a 1:9 ratio, resulting in an emulsion at a concentration of 2.3 mg/mL.

[3] = Solubility in SEDDs (lipid) vehicle, saturated solution
Description: A saturated solution of the docusate salt in the SEDDs vehicle and a saturated solution of the tosylate salt in the SEDDs vehicle were prepared. The SEDDs vehicle was 15 wt % Capmul® MCM C10, 50 wt % Polysorbate 80, and 35 wt % Miglyol 812.

[4] = Solubility in organic solvents, potency measurement by HPLC
Description: In a glass vial, N-(4-{4-amino-7-[1-(2-hydroxyethyl)-1H-pyrazol-4-yl]thieno[3,2-c]pyridin-3-yl}phenyl)-N′-(3-fluorophenyl)urea free base (501 mg, 1.02 mmol) was slurried in 20 ml of THF using a magnetic stir bar. The free base was converted to the HCl salt in-situ by addition of 5.0 ml of aqueous 0.207 N HCl. Docusate sodium (465 mg, 1.05 mmol) was added and the mixture was stirred until all solids dissolved. Solvent was removed by rotoevaporation. Acetone, 15 ml, was added to the flask with mixing until most of the solid has dissolved, resulting in a suspension of NaCl particles. The sample was then filtered through a 0.45 µm syringe filter (to remove the NaCl particles) followed by rotoevaporation to remove acetone. The sample was placed on a vacuum line to dry for 2 hours. The above step was repeated with 15 ml acetone and filtration through a 0.22 µm filter. After removing the acetone by rotoevaporation, the sample was dried under vacuum overnight. The sample appears to be amorphous to the naked eye. […] Solubilities were determined by potency measurements using high-performance liquid chromatography (HPLC).

Solubility in water = settings: pH 7.4
[5] = 15 wt % Capmul MCM C10, 50 wt % Polysorbate 80, 35 wt % Miglyol 812

| SMILES | dissolution in simulated gastric media [1] | dissolution in simulated intestinal media (IB) [1] | stability in emulsions (in words) [2] | solubility in the SEDD vehicle [3, 5] [mg/mL] | solubility in lipid vehicles (in words) ([3]; lipid vehicles) | solubility in tetrahydrofuran (THF) ([4]; THF) | solubility in acetone ([4]; acetone) [mg/mL] | solubility in dichloromethane ([4]; dichloromethane) [mg/mL] | solubility in ethanol ([4]; ethanol) [mg/mL] | solubility in water (Solubility in water) | solubility ([3]; SEDDs vehicle, oil or lipid, thermodynamic from solid, 15 wt % Capmul MCM C10, 50 wt % Polysorbate 80, 35 wt % Miglyol 812, read-out: solubility in the SEDD vehicle) [mg/mL] | solubility ([4]; organic solvent or mixture) [mg/mL] |
| --- | --- | --- | --- | --- | --- | --- | --- | --- | --- | --- | --- | --- |
| CCCCC(CC)COC(=O)CC(C(=O)OCC(CC)CCCC)S(=O)(=O)O.Nc1ncc(-c2cnn(CCO)c2)c2scc(-c3ccc(NC(=O)Nc4cccc(F)c4)cc3)c12 [docusate salt, N-(4-{4-amino-7-[1-(2-hydroxyethyl)-1H-pyrazol-4-yl]thieno[3,2-c]pyridin-3-yl}phenyl)-N′-(3-fluorophenyl)urea docusate salt] | does not dissolve in acidic pH | significantly higher solubility profile during the first 90 minutes in IB than either free base or the tosylate salt; also recorded: appreciable solubility in IB solution | remain stable in emulsions over a period of several days | 23 | high solubility in lipid vehicles | greater than 45 mg/ml | > 47 | > 75 | > 51 | – | – | – |
| Nc1ncc(-c2cnn(CCO)c2)c2scc(-c3ccc(NC(=O)Nc4cccc(F)c4)cc3)c12 [free base, N-(4-{4-amino-7-[1-(2-hydroxyethyl)-1H-pyrazol-4-yl]thieno[3,2-c]pyridin-3-yl}phenyl)-N′-(3-fluorophenyl)urea free base] | significant solubility at the lower pH | precipitates | – | 2.7 (≈ 5.53 mM) | – | – | – | – | – | less than 30 ng/ml | – | – |
| Cc1ccc(S(=O)(=O)O)cc1.Nc1ncc(-c2cnn(CCO)c2)c2scc(-c3ccc(NC(=O)Nc4cccc(F)c4)cc3)c12 [tosylate salt, N-(4-{4-amino-7-[1-(2-hydroxyethyl)-1H-pyrazol-4-yl]thieno[3,2-c]pyridin-3-yl}phenyl)-N′-(3-fluorophenyl)urea tosylate salt] | significant solubility at the lower pH | precipitates | – | – | – | – | – | – | – | – | 22 | > 25 |
